The text below walks through data of US11309064B2, “Individualized dosing technique with multiple variables” (priority 2017, dated 2022).

Data set [1] relates to INR. Kind of data set: INR lab value at clinic visits under Warfarin (Example 4). The class given is in vivo, patient.
Data set [2] deals with INR. Kind of data set: Software readout, predicted INR for a Warfarin dose (Example 5). Set-up: species or system patient. To be noted: 5 mg by mouth every 24 hours. From the text:
The nurse takes their INR lab value and enters it into a software program. The health care provider has the software open on a computer or a hand held device. Then the provider asks the patient the relevant questions, does a physical exam and inputs this into the electronic form.

Data set [3] has as its system INR. Kind of data set: INR and individual INR/Warfarin dose equation (Examples 7 and 8).
In data set [4] the test system is patients with nonvalvular AF. To be noted: long-term anticoagulation therapy; cited from earlier work.
For data set [5], the system named is plasma proteins. Particulars: cited from earlier work.
Data set [6] deals with blood glucose. Kind of data set: Software readout, predicted blood glucose for an insulin dose (Example 6). Set-up: species or system patient. To be noted: 100 units Subcutaneous every 24 hrs. From the text: A diabetes patient tells the health care provider their average daily blood glucose value. A health care provider can do this over a phone or via the Internet. A physical exam, review of biological systems, and medicine reconciliation is done and the information is put into software program. Then, for example, the software may have readout of “Given the data collected, the dose of 100 units of insulin Subcutaneous every 24 hrs will result in blood glucose of between 90-150 with a 50%-90% possibility if compliant with medications and no other variables change.”

Regarding `CC(=O)CC(c1ccccc1)c1c(O)c2ccccc2oc1=O` (racemic) [Warfarin], the INR is reported as 4.3 in data set [1] (1 month later on 5 mg Warfarin, Lasix 40 mg every 24 hours, over 3 glasses of wine last evening); 3.4 in data set [1] (1 week on 7 mg Warfarin by mouth everyday, with HCTZ 25 mg, Doxycycline 100 mg every 12 hours, some aspirin); 2.3 in data set [1] (2 weeks after restart at 5 mg Warfarin, Lasix 60 mg a day, 73 kg, antidepressant); 2.5 in data set [1] (2 weeks on 5 mg Warfarin every day, HCTZ 25 mg only); about 3 in data set [3] (Lasix 30 mg/day and Warfarin 7.5 mg/day); 2.5 in data set [3] (Warfarin 7.5 mg, 1 week after start of amoxicillin 500 mg / clavulanate 250 mg 3 times a day). For the same molecule, the INR in data set [3] (Warfarin 7.5 mg, next office visit after amoxicillin/clavulanate) is 6; in data set [3] (a week later again) it was 9; in data set [3] (after Warfarin stopped, blood transfusion and a dose of Vitamin K) it was 3.5. In addition, in data set [2], the “predicted INR” value is 2-3. Also, in data set [3] (after Lasix increased to 60 mg/day, Warfarin dose from earlier formula), the “observed INR” value is listed as 4-5. The “reduction of the risk for ischemic stroke” value in data set [4] was “approximately 68%”.

In the case of `CC/C(=C(\c1ccccc1)c1ccc(OCCN(C)C)cc1)c1ccccc1` [Tamoxifen], in data set [5], the protein binding entry is “Tamoxifen and Warfarin are highly protein bound. Tamoxifen”.

For the molecule `COc1cc([C@@H]2c3cc4c(cc3[C@@H](O[C@@H]3O[C@@H]5CO[C@@H](C)O[C@H]5[C@H](O)[C@H]3O)[C@H]3COC(=O)[C@H]23)OCO4)cc(OC)c1O` [etoposide], the protein binding result in data set [5] is “Highly protein bound. Interacts with other protein-bound drugs”.

For the molecule `CC(=O)O[C@H]1C(=O)[C@@]2(C)[C@H]([C@H](OC(=O)c3ccccc3)[C@]3(O)C[C@H](OC(=O)[C@H](O)[C@@H](NC(=O)c4ccccc4)c4ccccc4)C(C)=C1C3(C)C)[C@]1(OC(C)=O)CO[C@@H]1C[C@@H]2O` [paclitaxel], the protein binding entry in data set [5] is “Highly protein bound. Interacts with other protein-bound drugs”.

Take insulin: the predicted blood glucose in data set [6] was 90-150.
